Test results from US10149907B2, “Combinations of a photosensitizer with a hydrogen sulfide donor, thioredoxin inhibitor or nitroxide for use in photodynamic therapy” (UNIVERSITY OF EXETER, priority 2014, dated 2018).
Several values for one entry are separate records, joined by “and”; a condition that tells them apart may be missing. Identical values can stand only once. Like-named read-outs stand apart in the source and are kept apart here.

What was measured:
[1] = tested on: A431 cells; assay: cells; type: cell-based; conditions: for increase in cell killing compared to the use of MAL alone: 10 nM; for potency compared to CP94 (50 μM) exerting a similar degree of potentiation: 10 nM vs CP94 50 μM; for modes of cell death: 1 mM MAL + SRHD 10, 100 or 1000 nM + irradiation, FIG. 19
Experimental: A431 cells (human epithelial squamous cell carcinoma cells) were seeded at a density of 1×10^6 cells/ml in T12.5 cm^2 flasks and incubated under 2% O2 for 48 h prior to treatment. After 24 h, the culture medium was replaced and the cells were placed back into the incubators under 2% O2. Following this incubation period, the culture medium was then removed and the flasks were washed with PBS. The cells were then treated with one of the SRHDs and incubated at 2% O2 for 2 h, after which MAL was added to a final concentration of 1 mM and the cells were incubated at 2% O2 for 3 h. This meant in total, the cells were treated with the SRHDs for 5 h.
Following this final incubation, cell death was analysed by annexin V-FITC and propidium iodide staining in conjunction with flow cytometry.
(§1) Cell death analysis by flow cytometry was carried out using the annexin V-FITC/propidium iodide protocol. This protocol allows a quantitative assessment of cell death, particularly specific modes of death, and involves staining the cells with fluorescein isothiocyanate-conjugated annexin A5 (annexin V-FITC) and propidium iodide (PI). Positive staining with annexin V-FITC alone indicates an apoptotic cell; positive staining with PI alone indicates a necrotic cell and dual staining of both annexin V and PI indicates a “late apoptotic” cell.
From each flask being assessed, the old medium was removed and placed into a corresponding individual 15 ml Falcon tube in order to collect any cells that may have detached from the surface. The flask was washed once with 1 ml PBS; also deposited in the Falcon tubes. Trypsin (500 μl) was added to each flask and the flasks were returned to the incubator with their caps loosened. Cell detachment was monitored using an inverted light microscope, until 50% of the cells were detached. The flasks were then lightly tapped to detach the remainder of the cells. Medium (2 ml) was added to each flask in order to neutralise the trypsin present before being removed and dispensed into the Falcon tubes. One more wash with PBS was carried out in order to ensure any cells left in the flasks were collected. The Falcon tubes were then centrifuged at 490 g for 3 min, forming a pellet at the bottom of the tube. The supernatant was discarded, and the cells were re-suspended in 5 ml of PBS, in order to wash them, before being centrifuged again at 490 g for 3 min. […] The Falcon tubes were placed on ice and in the dark for 15 min to allow annexin V staining. […] The samples were then ready to be assessed by flow cytometry.
(§2) The following flow cytometry process of sample detection was used. When using annexin V-FITC and PI, the detectors being used were FL1 (λmax=520 nm) and FL3 (λmax=670 nm), respectively, each with their own logarithmic histogram generated by the software. The intensity of the fluorescence detected is measured on a logarithmic scale on the x-axis and the y-axis represents the number of cells detected at a given fluorescence intensity. A plot of FL1/FL3 produces a 4-quadrant graph, where unstained and untreated cells are located in the bottom left quadrant, representing any cells found in the 1st decade of the single plot logarithmic histograms. Single staining with annexin V-FITC and PI are located in the bottom right and top left quadrant, respectively, and dual staining is located in the top right quadrant. These quadrants represent any cells detected above the 1st decade of the logarithmic histograms.

[2] = tested on: A431 cells; conditions: for tolerance over 72 hours: 0-1000 nM
Experimental: A431 cells were seeded at a density of 1×10^5 cells/ml in 96 well plates and incubated under 2% O2 for 48 h prior to treatment. After 24 h, the culture medium was replaced and the cells were placed back into the incubators under 2% O2. Following this incubation period, the culture medium was then removed and the plates were washed with PBS. The cells were then treated with 1 mM MAL in the absence or presence of one of the compounds of interest and then incubated again at 2% O2 for 3 h. For experiments carried out with SRHDs, this treatment step was carried out for 5 h at 2% O2. After treatment, the cells were washed with PBS, the culture medium was replaced and the cells were placed back under 2% O2 for 3 h. Following this final incubation, cell death was analysed using the resazurin viability assay.
Resazurin (7-hydroxy-3H-phenoxazin-3-one 0-oxide) is a weakly fluorescent blue dye used primarily in oxidation-reduction cell viability assays. Irreversible NADH-dependent reduction by the mitochondria in mammalian cells leads to the production of resorufin, a highly fluorescent product with excitation at 571 nm, emission at 585 nm.
A431 cells were seeded into 96 well plates at a density of 1.5*10^6 cells per ml (200 μl per well, 3*10^5 cells) and incubated for 24 h to adhere. Following incubation, the cells were washed and treated with the compound of interest for the relevant time, and then washed with PBS. […] After a 2 h incubation, the fluorescence of each well was measured (excitation: 571 nm, emission: 585 nm) using a fluorescence plate reader. Data from these experiments was plotted as a percentage of cell viability compared to untreated control cells.

[3] = tested on: A431 cells; assay: MAL-induced PpIX accumulation, fluorescence plate reader; type: cell-based, human; conditions: for effect on PpIX accumulation compared to 1 mM MAL: 10, 100 and 1000 nM 5 hours + MAL 1 mM 3 hours, FIG. 21, 22
Experimental: After treatment, the cells were washed with PBS and a final 100 μl PBS was pipetted into each well for fluorescence readings. The fluorescence of PpIX was measured using a BMG Pherastar plate reader with a 410 nm excitation filter and a 630 nm emission filter.
A431 cells were treated concurrently with slow-releasing hydrogen sulfide donors (1 μM) for 5 hours and MAL (1 mM) for 3 hours, after which PpIX accumulation was measured by fluorescence plate reader (excitation 410 nm, […]). Co-treatment with CP94 (50 μM) was used as a positive control and for comparison.

[4] = tested on: A431 cells; assay: Mitochondrial reactive oxygen species generation during photodynamic irradiation, MitoSOX flow cytometry; type: cell-based, human
Experimental: A431 cells were treated concurrently with AP39-C10 (10, 100 or 1000 nM) for 5 hours, MAL (1 mM) for 3 hours and MitoSOX (2.5 μM) for 1 hour, after which they were irradiated for 5 min (630 nm, 25 J/cm^2) and MitoSOX (mito-2-OH-E^+) fluorescence, indicative of mitochondrial oxidant production, was immediately analysed by flow cytometry. Results are set out in FIG. 23.
Mitochondria-targeted dihydroethidium (i.e. MitoSOX) was used to assess the production of mitochondrial reactive oxygen species (ROS) by PpIX photochemical reactions and to determine the effects of AP39-C10 on this process. All of the results are represented as a percentage of the untreated controls (100.0±8.5%). The fluorescence of the photoirradiated cells, which had been pre-treated with MAL, was 193.7±7.3% (p<0.001 c.f. untreated controls).

[5] = tested on: A431 cells; assay: MAL-induced PpIX accumulation, fluorescence plate reader; type: cell-based, human; conditions: 3 hours
[6] = tested on: A431 cells; assay: Photodynamic cell killing in the presence of inhibitors of the thioredoxin antioxidant system or nitroxides (annexin V-FITC/propidium iodide flow cytometry); type: cell-based, human
Experimental: After this treatment, the cells were irradiated for 5 min (630 nm, 25 J/cm^2), then washed with PBS and the culture medium was replaced, after which the cells were placed back under 2% O2 and incubated for a further 3 h. Following this final incubation, cell death was analysed by annexin V-FITC and propidium iodide staining in conjunction with flow cytometry.
as §1
From each flask being assessed, the old medium was removed and placed into a corresponding individual 15 ml Falcon tube in order to collect any cells that may have detached from the surface. The flask was washed once with 1 ml PBS; also deposited in the Falcon tubes. Trypsin (500 μl) was added to each flask and the flasks were returned to the incubator with their caps loosened. Cell detachment was monitored using an inverted light microscope, until 50% of the cells were detached. The flasks were then lightly tapped to detach the remainder of the cells. Medium (2 ml) was added to each flask in order to neutralise the trypsin present before being removed and dispensed into the Falcon tubes. One more wash with PBS was carried out in order to ensure any cells left in the flasks were collected. The Falcon tubes were then centrifuged at 490 g for 3 min, forming a pellet at the bottom of the tube. The supernatant was discarded, and the cells were re-suspended in 5 ml of PBS, in order to wash them, before being centrifuged again at 490 g for 3 min. The wash stage was carried out once more before re-suspending the cell pellet in 95 μl of ice cold calcium (Ca^2+) buffer (50 mM HEPES, 700 mM NaCl, 12.5 mM CaCl2, pH 7.4) and adding 5 μl 12.5 μg/ml of annexin V-FITC (final concentration, 1.25 μg/ml), under reduced light conditions to prevent bleaching of the FITC. The Falcon tubes were placed on ice and in the dark for 15 min to allow annexin V staining. After 15 min, 860 μl of Ca^2+ buffer (10 mM Hepes adjusted to pH 7.4, 140 mM NaCl and 2.5 mM CaCl2) was added, followed by 40 μl of 1 mg/ml PI in water (final concentration, 0.04 mg/ml) to give a final volume of 1 ml. The samples were then ready to be assessed by flow cytometry.
as §2

[7] = 1 mM MAL + SRHD 10 nM (5 h) + irradiation, FIG. 18
[8] = 1 mM MAL + SRHD 100 nM (5 h) + irradiation, FIG. 18
[9] = 1 mM MAL + SRHD 1 μM (5 h) + irradiation, 3 h post-irradiation
[10] = 1 mM MAL + SRHD 1000 nM (5 h) + irradiation, FIG. 18
[11] = dark toxicity, without irradiation, SRHD 1 μM, 5 h, FIG. 1, 3
[12] = MAL 1 mM + SRHD 10 nM (5 hours), irradiated
[13] = MAL 1 mM + SRHD 100 nM (5 hours), irradiated
[14] = MAL 1 mM + SRHD 1000 nM (5 hours), irradiated

O=C(CCCCCCCCC[P+](c1ccccc1)(c1ccccc1)c1ccccc1)Oc1ccc(-c2cc(=S)ss2)cc1 [AP39-C10]
increase in cell killing compared to the use of MAL alone [1]: ~2 fold
potency compared to CP94 (50 μM) exerting a similar degree of potentiation [1]: 5000 fold
cell death [1, 7]: 50.7±3.1%
cell death [1, 8]: 53.1±2.3%
cell death [1, 9]: 45.3±1.9%
cell death [1, 10]: 50.2±4.9%
modes of cell death [1]: a further increase in apoptosis and late apoptosis, with no apparent effect on necrotic cell death
cell death [1, 11]: 12.1±4.9%
tolerance over 72 hours ([2]; 72 hours): well tolerated at each concentration tested
cell viability, percentage of untreated control ([2]; 1000 nM, 72 hours, FIG. 17): 94.1±2.6%
cell viability, percentage of untreated control ([2]; 500 μM, 5 hours, FIG. 15, 16): 59.3±13.3%
effect on PpIX accumulation compared to 1 mM MAL [3]: no effect on PpIX accumulation across any of the tested concentrations
MitoSOX fluorescence, percentage of untreated controls [4, 12]: 207.3±10.7%
MitoSOX fluorescence, percentage of untreated controls [4, 13]: 227.1±3.5%
MitoSOX fluorescence, percentage of untreated controls [4, 14]: 214.3±6.4%

NC(=S)c1ccc(OC(=O)CCCCCCCCC[P+](c2ccccc2)(c2ccccc2)c2ccccc2)cc1 [AP123-C10]
increase in cell killing compared to the use of MAL alone [1]: ~2 fold
potency compared to CP94 (50 μM) exerting a similar degree of potentiation [1]: 5000 fold
cell death [1, 7]: 57.2±1.3%
cell death [1, 8]: 56.5±2.7%
cell death [1, 9]: 50.9±6.5%
cell death [1, 10]: 66.7±5.6%
modes of cell death [1]: a further increase in apoptosis and late apoptosis, with no apparent effect on necrotic cell death
cell death [1, 11]: 14.5±0.5%
tolerance over 72 hours ([2]; 72 hours): well tolerated at each concentration tested
cell viability, percentage of untreated control ([2]; 500 μM, 5 hours, FIG. 15, 16): 62.6±9.1%
effect on PpIX accumulation compared to 1 mM MAL [3]: no effect on PpIX accumulation across any of the tested concentrations
MitoSOX fluorescence, percentage of untreated controls [4, 12]: 237.4±8.2%
MitoSOX fluorescence, percentage of untreated controls [4, 13]: 245.3±10.6%
MitoSOX fluorescence, percentage of untreated controls [4, 14]: 248.1±15.1%

CCc1c(O)c(O)cc[n+]1CC.[Cl-] [CP94]
increase in PpIX accumulation compared to MAL alone ([5]; 50 μM + MAL 1 mM, FIG. 35): 223.2±26.1%
peak response, increase in PpIX accumulation compared to MAL alone ([5]; peak at TEMPO 5 mM, MitoTEMPO 100 μM, CP94 100 μM, MAL 1 mM): 228.1±42.3%
effect on PpIX accumulation compared to 1 mM MAL alone ([3]; CP94 50 μM + MAL 1 mM, positive control): significantly increased PpIX accumulation
MitoSOX fluorescence, percentage of untreated cells ([4]; MAL 1 mM + co-treatment 50 μM, 3 hours, irradiated): 198.4±7.7%

COC(=O)CCC(=O)CN [MAL, methyl aminolaevulinate]
cytotoxicity at 1000 µM ([1]; Homo sapiens, A-431, light or radiation study, 3 h, read-out: cell death, 1 mM MAL 3 h and irradiation (630 nm, 25 J/cm2) in the absence of any SRHD): 27.5 ± 5.5%
cell death ([6]; 1 mM MAL 3 h and irradiation (630 nm, 25 J/cm2) alone, no co-treatment): 32.5±3.6% and 29.1±3.8% and 34.4±3.2% and 26.8±1.9% and 24.6±4.2%
modes of cell death ([6]; 1 mM MAL and irradiation alone, compared to untreated controls): increase in all types of cell death
PpIX accumulation compared to untreated controls ([3]; MAL 1 mM, 3 hours): significantly increased PpIX accumulation compared to untreated controls
MitoSOX fluorescence, percentage of untreated controls ([4]; MAL 1 mM alone, photoirradiated): 193.7±7.3% and 220.1±8.5% and 143.3±4.8% and 207.4±16.7%
